Where two headings read alike, the source gives them in different places. Each block holds one compound with its values, some of them ahead of it.
Legend:
RCC = test system: RCC; set-up: method as in PMID 22056247; conditions: after first line therapy, cited from earlier work
[1] = Pharmacokinetic analysis of blood samples (noncompartmental); type: in vivo, human; conditions: for AUC(0-t) / Cmax: human
Description: Blood samples were collected pre-, 1, 2, 4, 6, 8, 12, and 24 h post-dose on Days 1 and 2 of Cycles 1 and 2. […] Noncompartmental PK parameters were calculated using WinNonlin (Pharsight, Mountain View, CA).

Structure (SMILES): CNC(=O)c1ccccc1Sc1ccc2c(/C=C/c3ccccn3)n[nH]c2c1 [axitinib]
- mPFS (RCC; axitinib arm): 6.7 months

- AUC(0-t) ([1]; blood, sorafenib, steady state (cycle 2), HCC patients, tivantinib 360 mg BID and sorafenib 400 mg BID, read-out: AUC0-12h): 43300 ng·h/mL
- AUC0-12h ([1]; sorafenib, steady state (cycle 2), non-HCC patients, tivantinib 360 mg BID and sorafenib 400 mg BID): 39,906 ± 20,604 ng*hr/mL
Structure (SMILES): CNC(=O)c1cc(Oc2ccc(NC(=O)Nc3ccc(Cl)c(C(F)(F)F)c3)cc2)ccn1 [sorafenib, reference compound]
- mPFS (RCC; sorafenib arm): 4.7 months

- AUC(0-t) ([1]; in vivo, tivantinib, cycle 2, one HCC patient, tivantinib 240 mg BID with sorafenib 400 mg BID, read-out: AUC0-12 h): 6690 ng·h/mL
- Cmax ([1]; in vivo, tivantinib, cycle 2, one HCC patient, tivantinib 240 mg BID with sorafenib 400 mg BID, read-out: Cmax): 879 ng/mL
- AUC(0-t) ([1]; in vivo, tivantinib, steady state (cycle 2), HCC patients, tivantinib 360 mg BID and sorafenib 400 mg BID, read-out: AUC0-12h): 12400 ng·h/mL
- Cmax ([1]; in vivo, tivantinib, steady state (cycle 2), HCC patients, tivantinib 360 mg BID and sorafenib 400 mg BID, read-out: mean Cmax): 1510 ng/mL
- AUC(0-t) ([1]; in vivo, tivantinib, steady state (cycle 2), non-HCC patients, tivantinib 360 mg BID and sorafenib 400 mg BID, read-out: AUC0-12h): 8740 ng·h/mL
- Cmax ([1]; in vivo, tivantinib, steady state (cycle 2), non-HCC patients, tivantinib 360 mg BID and sorafenib 400 mg BID, read-out: mean Cmax): 1320 ng/mL
Structure (SMILES): O=C1NC(=O)[C@@H](c2cn3c4c(cccc24)CCC3)[C@@H]1c1c[nH]c2ccccc12 [tivantinib, Tivantinib]

Source: publication PMC4295023 (Investigational New Drugs, 2014)
